Patent publication US20180153899A1, “PHARMACEUTICAL COMPOSITIONS” (Novartis AG, priority 2015, published 2018)
Read-outs that look alike come from different tables or passages of the source.

Assay: Clinical study, steady state PK (Cycle 1 Day 15) after daily oral tablets of example 1
Assay type: in vivo, human
Details: for AUC(0-t) / Cmax / Tmax / half-life / AUC: human, in vivo; for Tmax: median (minimum-maximum); for half-life: read-out: T½ (converted)
Experimental: Non-small cell lung cancer patients with EGFR T790M mutation were enrolled in a clinical study and received escalating doses of EGF816 ranging from 100 mg to 225 mg daily oral doses by using the tablets as described in example 1.

[1] = 150 mg qd (N = 6), geometric mean (CV %)
[2] = 200 mg qd (N = 7), geometric mean (CV %)
[3] = 225 mg qd (N = 7), geometric mean (CV %)
[4] = 100 mg qd (N = 3), geometric mean (CV %)

Cc1cc(C(=O)Nc2nc3cccc(Cl)c3n2[C@@H]2CCCCN(C(=O)/C=C/CN(C)C)C2)ccn1 [EGF816, (R,E)-N-(7-chloro-1-(1-(4-(dimethylamino)but-2-enoyl)azepan-3-yl)-1H-benzo[d]imidazol-2-yl)-2-methylisonicotinamide]
CLss/F [1]: 238 (38) mL/min | CLss/F [2]: 247 (58) mL/min | CLss/F [3]: 222 (37) mL/min | AUC(0-t) [4]: 9050 ng·h/mL | Cmax [4]: 519 ng/mL | Tmax (100 mg qd (N = 3)): 6 h | half-life (100 mg qd (N = 3), only one value calculated): 14 h | AUC [1]: 10500 ng·h/mL | AUC(0-t) [1]: 10300 ng·h/mL | Cmax [1]: 675 ng/mL | half-life [1]: 17 h | Tmax (150 mg qd (N = 6)): 5 h | AUC [2]: 13500 ng·h/mL | AUC(0-t) [2]: 13500 ng·h/mL | Cmax [2]: 939 ng/mL | half-life [2]: 13 h | Tmax (200 mg qd (N = 7)): 3 h | AUC [3]: 16900 ng·h/mL | AUC(0-t) [3]: 12100 ng·h/mL | Cmax [3]: 1270 ng/mL | half-life [3]: 10 h | Tmax (225 mg qd (N = 7)): 3 h
